# Article PMC7541396 (Nature biotechnology, 2020)
# Assays:
# TCR004 = assay type: cell-based, human; conditions: Supplementary Fig. 4b, n=3
# TCR121 = assay: Mtb proteome screen and PPE protein stimulation with aAPC, TCR121; assay type: cell-based, human
Molecule,response of TCR004 to cell-free expressed protein (TCR004),stimulation of TCR121 by whole PPE protein (TCR121)
"CFP10: Mtb protein, cell-free expressed; TCR004 target",only responded to its target antigen CFP10,
"PPE26: Mtb PPE protein, cell-free expressed (protein, UniProt Q79FK6 1-393, looked up) PPE family protein PPE26: MDFGALPPEVNSVRMYAGPGSAPMVAAASAWNGLAAELSSAATGYETVITQLSSEGWLGPASAAMAEAVAPYVAWMSAAAAQAEQAATQARAAAAAFEAAFAATVPPPLIAANRASLMQLISTNVFGQNTSAIAAAEAQYGEMWAQDSAAMYAYAGSSASASAVTPFSTPPQIANPTAQGTQAAAVATAAGTAQSTLTEMITGLPNALQSLTSPLLQSSNGPLSWLWQILFGTPNFPTSISALLTDLQPYASFFYNTEGLPYFSIGMGNNFIQSAKTLGLIGSAAPAAVAAAGDAAKGLPGLGGMLGGGPVAAGLGNAASVGKLSVPPVWSGPLPGSVTPGAAPLPVSTVSAAPEAAPGSLLGGLPLAGAGGAGAGPRYGFRPTVMARPPFAG",,strong to modest stimulation
